Where a name gives a salt, the structure may show the parent alone. Read-outs that look alike come from different tables or passages of the source.
Tests used:
[1] = target: T1, human alpha 1a adrenergic receptor (Homo sapiens, UniProt P35348); experiment: Alpha 1a Adrenergic Receptor Binding (competition binding, [125I]-HEAT); details: human alpha 1a membranes, [125I]-HEAT competition, room temperature, one hour
T1 sequence (P35348 1-466): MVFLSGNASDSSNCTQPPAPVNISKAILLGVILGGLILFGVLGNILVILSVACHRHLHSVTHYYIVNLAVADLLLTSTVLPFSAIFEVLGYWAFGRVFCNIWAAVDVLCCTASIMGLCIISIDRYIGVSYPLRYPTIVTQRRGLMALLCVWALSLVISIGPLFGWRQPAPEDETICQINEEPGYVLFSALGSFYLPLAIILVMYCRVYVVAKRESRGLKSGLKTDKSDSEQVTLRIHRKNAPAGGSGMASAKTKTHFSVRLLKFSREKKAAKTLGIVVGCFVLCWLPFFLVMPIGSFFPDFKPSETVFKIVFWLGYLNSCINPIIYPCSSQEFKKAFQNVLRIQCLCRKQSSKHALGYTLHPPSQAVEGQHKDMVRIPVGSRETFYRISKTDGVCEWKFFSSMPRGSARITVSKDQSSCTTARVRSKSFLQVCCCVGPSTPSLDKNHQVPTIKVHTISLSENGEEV
Protocol: Screening Assay: Alpha 1a Adrenergic Receptor Binding
Membranes prepared from the stably transfected human alpha 1a cell line (ATCC CRL 11140) were used to identify compounds that bind to the human alpha 1a adrenergic receptor. These competition binding reactions (total volume=200 μl) contained 50 mM Tris-HCl pH. 7.4, 5 mM EDTA, 150 mM NaCl, 100 pM [^125 I]-HEAT, membranes prepared from the alpha 1a cell line and increasing amounts of unlabeled ligand. Reactions were incubated at room temperature for one hour with shaking. Reactions were filtered onto Whatman GF/C glass fiber filters with a Inotec 96 well cell harvester. Filters were washed three times with ice cold buffer and bound radioactivity was determined (Ki).

[2] = target: T2, human alpha 1d adrenergic receptor (Homo sapiens, UniProt P25100); experiment: Selective Binding Assay, alpha 1d (competition binding, [125I]-HEAT); details: alpha 1a versus alpha 1d, [125I]-HEAT competition binding
T2 construct: host or cells: stably transfected cell line
T2 sequence (P25100 1-572): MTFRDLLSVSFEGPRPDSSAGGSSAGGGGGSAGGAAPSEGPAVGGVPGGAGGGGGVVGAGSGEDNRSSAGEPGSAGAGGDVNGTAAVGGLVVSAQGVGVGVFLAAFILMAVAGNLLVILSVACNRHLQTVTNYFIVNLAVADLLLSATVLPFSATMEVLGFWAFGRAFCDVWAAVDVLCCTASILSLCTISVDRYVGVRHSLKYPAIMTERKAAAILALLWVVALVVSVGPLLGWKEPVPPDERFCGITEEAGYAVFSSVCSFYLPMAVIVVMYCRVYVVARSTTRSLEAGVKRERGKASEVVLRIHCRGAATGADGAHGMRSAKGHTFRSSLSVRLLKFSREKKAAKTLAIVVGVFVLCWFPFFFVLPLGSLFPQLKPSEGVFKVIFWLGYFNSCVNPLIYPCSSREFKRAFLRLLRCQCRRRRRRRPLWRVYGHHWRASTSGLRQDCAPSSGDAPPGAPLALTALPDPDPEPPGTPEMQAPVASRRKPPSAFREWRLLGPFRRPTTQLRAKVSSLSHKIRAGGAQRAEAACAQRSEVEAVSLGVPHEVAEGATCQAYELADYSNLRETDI
Protocol: (§1) Membranes prepared from stably transfected human alpha 1d and alpha 1b cell lines (ATCC CRL 11138 and CRL 11139, respectively) were used to identify compounds that selectively bind to the human alpha 1a adrenergic receptor. These competition binding reactions (total volume=200 μl) contained 50 mM Tris-HCl pH. 7.4, 5 mM EDTA, 150 mM NaCl, 100 pM [^125 I]-HEAT, membranes prepared from cell lines transfected with the respective alpha 1 subtype expression plasmid and increasing amounts of unlabeled ligand. Reactions were incubated at room temperature for one hour with shaking. Reactions were filtered onto Whatman GF/C glass fiber filters with a Inotec 96 well cell harvester. Filters were washed three times with ice cold buffer and bound radioactivity was determined (Ki).

[3] = target: T3, human alpha 1b adrenergic receptor (Homo sapiens, UniProt P35368); experiment: Selective Binding Assay, alpha 1b (competition binding, [125I]-HEAT); details: alpha 1a versus alpha 1b, [125I]-HEAT competition binding
T3 construct: host or cells: stably transfected cell line
T3 sequence (P35368 1-520): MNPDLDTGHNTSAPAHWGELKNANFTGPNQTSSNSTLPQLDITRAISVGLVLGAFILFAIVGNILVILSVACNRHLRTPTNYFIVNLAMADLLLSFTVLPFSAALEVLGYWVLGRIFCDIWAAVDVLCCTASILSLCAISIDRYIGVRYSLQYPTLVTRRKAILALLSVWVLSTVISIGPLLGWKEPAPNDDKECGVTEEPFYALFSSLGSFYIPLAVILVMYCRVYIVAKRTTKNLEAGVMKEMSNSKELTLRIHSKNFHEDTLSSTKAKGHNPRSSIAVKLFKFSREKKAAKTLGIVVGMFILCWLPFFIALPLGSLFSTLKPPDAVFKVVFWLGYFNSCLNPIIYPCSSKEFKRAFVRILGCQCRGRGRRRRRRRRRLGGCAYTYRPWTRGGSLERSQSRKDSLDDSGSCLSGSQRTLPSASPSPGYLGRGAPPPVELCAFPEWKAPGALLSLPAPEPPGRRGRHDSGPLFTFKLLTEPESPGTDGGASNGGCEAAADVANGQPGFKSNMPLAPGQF
Protocol: as §1

| SMILES | Ki ([1]; alpha 1a Ki) [nM] | Ki ([1]; read-out: alpha 1a Ki) [nM] | further results |
| --- | --- | --- | --- |
| O=C1NC2(CCc3cc(F)ccc32)C(=O)N1CCCN1CCC2(CCc3ccccc32)CC1 (racemic) [Compound 12, (+/ -)-1-{3-{Spiro[indano-1,4'-piperidin]-1-yl}propyl}-5'-fluoro-spiro[imidazoline-4,1'indan]-2,5-dione hydrochloride] | < 10 |  |  |
| Cl.O=C1Nc2ccc(Cl)cc2C2(CCN(CCCN3C(=O)NC4(CCc5cc(F)ccc54)C3=O)CC2)O1 (racemic) [Compound 15, (+/ -)-1-{3-{6-Chlorospiro[4H-3,1-benzoxazine-4,4'-piperidin]-2(1H)-on-1'-yl}propyl}-5'-fluoro-spiro[imidazolidine-4,1'indan]-2,5-dione hydrochloride] | < 100 |  | fold more selective in binding to alpha 1a receptors versus binding to the alpha 1d receptors [2]: at least 10 fold; fold more selective in binding to alpha 1a receptors versus binding to the alpha 1b receptors [3]: at least 10 fold |
| N#Cc1cc(F)ccc1C1CCN(CCCN2C(=O)NC3(CCc4cc(F)c(F)cc43)C2=O)CC1 (racemic) [Compound 18, (+/ -)-1-{3-[4-(4-Fluoro-2-cyanophenyl)piperidin-1-yl]propyl}-5',6'-difluoro-spiro[imidazolidine-4,1'indan]-2,5-dione hydrochloride] |  | < 10 |  |
| N#Cc1cc(F)ccc1C1CCN(CCCN2C(=O)NC3(CCc4cc(Cl)ccc43)C2=O)CC1 (racemic) [Compound 23, (+/ -)-1-{3-[4-(4-Fluoro-2-cyanophenyl)piperidin-1-yl]propyl}-5'-chloro-spiro[imidazolidine-4,1'indan]-2,5-dione hydrochloride] |  | < 10 |  |
| O=C1Nc2ccc(Cl)cc2C2(CCN(CCCN3C(=O)NC4(CCc5cc(Cl)ccc54)C3=O)CC2)O1 (racemic) [Compound 29, (+/ -)-1-{3-{6-Chlorospiro[4H-3,1-benzoxazine-4,4'-piperidin]-2(1H)-on-1'-yl}propyl}-5'-chloro-spiro[imidazolidine-4,1'indan]-2,5-dione hydrochloride] | < 10 |  |  |
| Cc1ccc2c(c1)CCC21NC(=O)N(CCCN2CCC3(CCc4ccccc43)CC2)C1=O (racemic) [Compound 33, (+/ -)-1-{3-{Spiro[indano-1,4'-piperidin]-1-yl}propyl}-5'-methyl-spiro[imidazolidine-4,1'indan]-2,5-dione hydrochloride] | < 10 |  |  |
| Cc1ccc2c(c1)CCC21NC(=O)N(CCCN2CCC(c3ccc(F)cc3C#N)CC2)C1=O (racemic) [Compound 36, (+/ -)-1-{3-[4-(4-Fluoro-2-cyanophenyl)piperidin-1-yl]propyl}3-5'-methyl-spiro[imidazolidine-4,1'indan]-2,5-dione hydrochloride] |  | < 10 |  |
| N#Cc1cc(F)ccc1C1CCN(CCCN2C(=O)NC3(CCSc4cc(F)ccc43)C2=O)CC1 (racemic) [Compound 45, (+/ -)-1'-{3-[4-(4-Fluoro-2-cyano-phenyl)piperidin-1-yl]propyl}-7-fluoro-2,3-dihydro-spiro[4H-1-benzothiopyran-4,4'-imidazolidine]-2',5'-dione hydrochloride] |  | < 10 |  |
| Cl.N#CC1(c2ccccc2)CCN(CCCN2C(=O)NC3(CCCCc4ccc(F)cc43)C2=O)CC1 (racemic) [Compound 48, (+/ -)-1'-[3-(4-Cyano-4-phenylpiperidin-1-yl)propyl]-3-fluoro-6,7,8,9-tetrahydro-spiro[5H-benzocycloheptene-5,4'-imidazolidine]-2',5'-dione hydrochloride] |  |  | fold more selective in binding to alpha 1a receptors versus binding to the alpha 1d receptors [2]: at least 10 fold; fold more selective in binding to alpha 1a receptors versus binding to the alpha 1b receptors [3]: at least 10 fold |
| N#Cc1cc(F)ccc1C1CCN(CCCN2C(=O)NC3(CCCOc4cc(F)ccc43)C2=O)CC1 (racemic) [Compound 50, (+/ -)-1-{3-[4-(4-fluoro-2-cyano-phenyl)piperidin-1-yl]propyl}-8-fluoro-2,3,4,5-tetrahydro-spiro[1-benzoxepin-5(2H),4'-imidazolidine]-2',5'-dione hydrochloride] |  | < 10 |  |
| CC(CCN1C(=O)NC2(CCc3cc(Cl)ccc32)C1=O)N1CCC(c2ccc(F)cc2)CC1.Cl (racemic) [Compound 51, (+/ -)-1-{3-[4-(4-fluorophenyl)piperidin-1-yl]butyl}-5'-chloro-spiro[imidazolidine-4,1'indan]-2,5-dione hydrochloride] |  |  | fold more selective in binding to alpha 1a receptors versus binding to the alpha 1d receptors [2]: at least 10 fold; fold more selective in binding to alpha 1a receptors versus binding to the alpha 1b receptors [3]: at least 10 fold |
| Cc1ccc2c(c1)CCC21NC(=O)N(CCCN2CCC3(CCc4ccccc43)CC2)C1=O (single isomer, unassigned; (+)) [Compound 35, (+)-1-{3-{spiro[indano-1,4'-piperidin]-1-yl}propyl}-5'-methyl-spiro[imidazolidine-4,1'indan]-2,5-dione] | < 10 |  |  |
| O=C1NC2(CCOc3cc(F)ccc32)C(=O)N1CCCN1CCC(c2ccc(F)cc2)CC1 (single isomer, unassigned; (+)) [Compound 42, (+)-1'-{3-[4-(4-fluorophenyl)piperidin-1-yl]propyl}-7-fluoro-2,3-dihydro-spiro[4H-1-benzopyran-4,4'-imidazolidine]-2',5'-dione] |  | < 10 |  |
| N#CC1(c2ccccc2)CCN(CCCN2C(=O)NC3(CCc4cc(F)ccc43)C2=O)CC1 (stereo not shown) [Compound 10] | < 10 |  |  |
| O=C1NC2(CCc3cc(F)ccc32)C(=O)N1CCCN1CCC2(CCc3ccccc32)CC1 (stereo not shown) [Compound 14] | < 100 |  |  |
| N#Cc1cc(F)ccc1C1CCN(CCCN2C(=O)NC3(CCc4cc(F)c(F)cc43)C2=O)CC1 (stereo not shown) [Compound 19] |  | < 10 |  |
| N#Cc1cc(F)ccc1C1CCN(CCCN2C(=O)NC3(CCc4cc(Cl)ccc43)C2=O)CC1 (stereo not shown) [Compound 24] |  | < 10 |  |
| O=C1NC2(CCc3cc(Cl)ccc32)C(=O)N1CCCN1CCC2(CCc3ccccc32)CC1 (stereo not shown) [Compound 28] | < 10 |  |  |

Reference: US6316437A, “Spirohydantoin compounds and uses thereof” (Merck & Co., Inc., priority 2000, dated 2001)
